US6610523B1, “Cytokine-, stress-, and oncoprotein-activated human protein kinase kinases” (University of Massachusetts, priority 1995, dated 2003)

Tests used:
Assay type in all cases: cell-based
JNK1 [1] = test: Immunecomplex protein kinase assay of JNK1 from treated HeLa cells, ATF2 as substrate; conditions: for JNK1 activation (in words): PMA 10 nM, EGF 10 nM, sorbitol 300 mM, interleukin-1 10 ng/ml, TNFα 10 ng/ml; for Relative Protein Kinase Activity JNK: control = 1.0
Procedure: (§1) The effect of phorbol ester, EGF, UV radiation, osmotic stress, IL-1, tumor necrosis factor (TNF), and LPS on p38 MAP kinase and JNK1 activity were measured in immunecomplex protein kinase assays using ATP [γ-^32P] and ATF2 as substrates. TNFα and IL-1α were from Genzyme Corp. Lipolysaccharide (LPS) was isolated from lyophilized Salmonella minesota Re595 bacteria as described (Mathison et a. (1988) J. Clin. Invest. 81:1925). Phorbol myristate acetate was from Sigma. EGF was purified from mouse salivary glands (Davis (1988) J. Biol. Chem. 263:9462). Kinase assays were performed using immunoprecipitates of p38 and JNK. The immunocomplexes were washed twice with kinase buffer (described above), and the assays initiated by the addition of 1 μg of ATF2 and 50 μM [γ-^32P]ATP (10 Ci/mmol) in a final volume of 25 μl. The reactions were terminated after 30 minutes at 30° C. by addition of Laemmli sample buffer. The phosphorylation of ATF2 was examined after SDS-PAGE by autoradiography, and the rate of ATF2 phosphorylation quantitated by PhosphorImager analysis. […]

p38 MAP kinase [2] = test: p38 MAP kinase immunecomplex assay (ATF2 substrate) in transfected COS-1 cells; conditions: COS-1 cells transfected with epitope-tagged p38; 10 nM EGF
Procedure: COS-1 cells were transfected with epitope-tagged p38 MAP kinase, together with an empty expression vector or an expression vector encoding MEK1, MKK3, or MKK4α. Some of the cultures were exposed to UV radiation (40 J/m^2) or treated with 10 nM EGF. p38 MAP kinase was isolated by immunoprecipitation with M2 monoclonal antibody, and the protein kinase activity was measured in the immunecomplex with [γ-^32P]ATP and ATF2 as substrates. The product of the phosphorylation reaction was visualized after SDS-PAGE by autoradiography. […] MKK3 and MKK4 phosphorylation of ATF2 was similar to that seen with p38 MAP kinase isolated from UV-irradiated cells.

p38 MAP kinase [3] = test: Immunecomplex protein kinase assay of p38 MAP kinase from treated HeLa cells, ATF2 as substrate; conditions: for p38 activation (in words): PMA 10 nM, EGF 10 nM, sorbitol 300 mM, interleukin-1 10 ng/ml, TNFα 10 ng/ml; for Relative Protein Kinase Activity p38: control = 1.0
Procedure: as §1

p38 MAP kinase [4] = test: Immunecomplex protein kinase assay of p38 MAP kinase from CHO cells that express human CD14, ATF2 as substrate
Procedure: (§2) The effect of phorbol ester, EGF, UV radiation, osmotic stress, IL-1, tumor necrosis factor (TNF), and LPS on p38 MAP kinase and JNK1 activity were measured in immunecomplex protein kinase assays using ATP [γ-^32P] and ATF2 as substrates. TNFα and IL-1α were from Genzyme Corp. Lipolysaccharide (LPS) was isolated from lyophilized Salmonella minesota Re595 bacteria as described (Mathison et a. (1988) J. Clin. Invest. 81:1925). Phorbol myristate acetate was from Sigma. EGF was purified from mouse salivary glands (Davis (1988) J. Biol. Chem. 263:9462). Kinase assays were performed using immunoprecipitates of p38 and JNK. The immunocomplexes were washed twice with kinase buffer (described above), and the assays initiated by the addition of 1 μg of ATF2 and 50 μM [γ-^32P]ATP (10 Ci/mmol) in a final volume of 25 μl. The reactions were terminated after 30 minutes at 30° C. by addition of Laemmli sample buffer. The phosphorylation of ATF2 was examined after SDS-PAGE by autoradiography, and the rate of ATF2 phosphorylation quantitated by PhosphorImager analysis.
(§3) The effect of LPS on the activity of p38 was examined using CHO cells that express human CD14.

JNK1 [5] = test: Immunecomplex protein kinase assay of JNK1 from CHO cells that express human CD14, ATF2 as substrate
Procedure: as §2, §3

JNK1 [6] = test: JNK1 immunecomplex kinase assay (c-Jun substrate) in CHO cells expressing epitope-tagged JNK1 after osmotic shock
Procedure: CHO cells were co-transfected with the plasmid pCMV-Flag-Jnk1 and pRSV-Neo (Dérijard et al. (1994) supra) . A stable cell line expressing epitope-tagged Jnk1 (Flag; Immunex Corp.) was isolated by selection with Geneticin (Gibco-BRL). The cells were incubated with 0, 100, 150, 300, 600, or 1000 mM sorbitol for 1 hour at 37° C. The cells were collected in lysis buffer (20 mM Tris, pH 7.4, 1% TRITON® X-100, 2 mM EDTA, 137 mM NaCl, 25 mM β-glycerophosphate, 1 mM orthovanadate, 2 mM pyrophosphate, 10% glycerol, 1 mM phenylmethylsulfonyl fluoride, 10 μg/ml leupeptin) and a soluble extract was obtained by centrifugation at 100,000 g for 30 minutes at […]. The epitope-tagged JNK1 was isolated by immunoprecipitation with the monoclonal antibody M2 (Immunex Corp.). The immunoprecipitates were washed extensively with lysis buffer. Immunecomplex kinase assays were done in 25 μl of 25 mM Hepes, pH 7.4, 25 mM MgCl2, 25 mM β-glycerophosphate, 2 mM dithiothreitol, 100 AM orthovanadate, and 50 AM ATP [γ-^32P] (10 Ci/mmole) with 2.5 μg of bacterially expressed c-Jun (residues 1-79) fused to glutathione-S-transferase (GST) as a substrate. The phosphorylation of c-Jun was examined after SDS-PAGE by autoradiography and PhosphorImager (Molecular Dynamics Inc.) analysis.
The time course of JNK1 protein kinase activation was measured in cells incubated in medium supplemented with 300 mM sorbitol as described above. Increased JNK1 activity was observed within 5 minutes of exposure to sorbitol, with maximum activity occurring after 15-30 minutes.

ATF2 = test: Electrophoretic mobility of ATF2 by immuno-blot in JNK1-transfected CHO cells; conditions: IL-1α 10 ng/ml or fetal bovine serum 20%, 30 minutes at 37° C.
Procedure: CHO cells were maintained in Ham's F12 medium supplemented with 5% […] (Gibco-BRL). Cells were labeled and transfected with JNK1 as described above. CHO cells were treated with UV-C (40 J/m^2), IL-1α (10 ng/ml) (Genzyme), or fetal bovine serum (20%) (Gibco-BRL). The cells were incubated for 30 minutes at 37° C. prior to harvesting. The electrophoretic mobility of ATF2 after SDS-PAGE was examined by protein immuno-blot analysis.

[7] = tested on: reporter plasmid pG5E1bLuc (GAL4 sites, firefly luciferase gene); test: GAL4-ATF2 fusion protein co-transfection assay with luciferase reporter plasmid pG5E1bLuc in CHO cells; conditions: luciferase and β-galactosidase mean activity ratio of three experiments
Procedure: A fusion protein consisting of ATF2 and the GAL4 DNA binding domain was expressed in CHO cells as described above. The activity of the GAL4-ATF2 fusion protein was measured in co-transfection assays with the reporter plasmid pG5E1bLuc (Seth et al. (1992) J. Biol. Chem. 267:24796, hereby specifically incorporated by reference). The reporter plasmid contains five GAL4 sites cloned upstream of a minimal promoter element and the firefly luciferase gene. Transfection efficiency was monitored with a control plasmid that expresses β-galactosidase (pCH110; Pharmacia-LKB Biotechnology). The luciferase and β-galactosidase activity detected in cell extracts was measured as the mean activity ratio of three experiments (Gupta et al. (1993) Proc. Natl. Acad. Sci. USA 90:3216, hereby specifically incorporated by reference).

[8] = CHO cells that express human CD14, 10 ng/ml, control = 1.0

| Molecule | JNK1 activation (in words) (JNK1 [1]) | Relative Protein Kinase Activity JNK (JNK1 [1]) | p38 activation (in words) (p38 MAP kinase [3]) | Relative Protein Kinase Activity p38 (p38 MAP kinase [3]) | further results |
| --- | --- | --- | --- | --- | --- |
| Epidermal Growth Factor: EGF purified from mouse salivary glands | only weakly activated | 1.9 | only weakly activated | 2.1 | ATF2 phosphorylation by p38 MAP kinase isolated from treated cells (in words) (p38 MAP kinase [2]): not phosphorylated |
| Lipopolysaccharide | – | – | – | – | Relative Protein Kinase Activity p38 (p38 MAP kinase [4]; [8]): 3.7; p38 activation (in words) (p38 MAP kinase [4]; CHO cells, 10 ng/ml LPS): only slightly activated; Relative Protein Kinase Activity JNK (JNK1 [5]; [8]): 3.6; JNK1 activation (in words) (JNK1 [5]; CHO cells, 10 ng/ml LPS): only slightly activated |
| Tumor Necrosis Factor | strongly activated | 19.3 | strongly activated | 10.3 | – |
| CCCCCCCCCCCCCC(=O)O[C@@H]1[C@@H](C)[C@@]2(O)[C@@H](C=C(CO)C[C@]3(O)C(=O)C(C)=C[C@@H]23)[C@@H]2C(C)(C)[C@]12OC(C)=O [Phorbol Ester, Phorbol myristate acetate] | very weakly activated | 2.3 | very weakly activated | 2.9 | – |
| OC[C@@H](O)[C@@H](O)[C@H](O)[C@@H](O)CO [sorbitol] | strongly activated | 18.1 | strongly activated | 4.2 | time of maximum JNK1 activity (JNK1 [6]; 300 mM sorbitol): 15 to 30 min; time to increased JNK1 activity (JNK1 [6]; 300 mM sorbitol): ≤ 5 min; JNK1 activation (in words) (JNK1 [6]; 100, 150, 300, 600 or 1000 mM sorbitol, 1 hour at 37° C.): JNK1 activation was observed at all concentrations |
| Interleukin-1: IL-1α from Genzyme Corp., pro-inflammatory cytokine | strongly activated | 8.9 | strongly activated | 6.2 | shift in ATF2 electrophoretic mobility (in words) (ATF2): A shift in ATF2 electrophoretic mobility was observed |
| GAL4-ATF2 (Ala^69.71): GAL4-ATF2 fusion protein with Thr69 and Thr71 replaced with Ala (protein) MKLLSSIEQACDICRLKKLKCSKEKPKCAKCLKNNWECRYSPKTKRSPLTRAHLTEVESRLERLEQLFLLIFPREDLDMILKMDSLQDIKALLTGLFVQDNVNKDAVTDRLASVETDMPLTLRQHRISATSSSEESSNKGQRQLTVSMKFKLHVNSARQYKDLWNMSDDKPFLCTAPGCGQRFTNEDHLAVHKHKHEMTLKFGPARNDSVIVADQAPAPTRFLKNCEEVGLFNELASPFENEFKKASEDDIKKMPLDLSPLATPIIRSKIEEPSVVETTHQDSPLPHPESTTSDEKEVPLAQTAQPTSAIVRPASLQVPNVLLTSSDSSVIIQQAVPSPTSSTVITQAPSSNRPIVPVPGPFPLLLHLPNGQTMPVAIPASITSSNVHVPAAVPLVRPVTMVPSVPGIPGPSSPQPVQSEAKMRLKAALTQQHPPVTNGDTVKGHGSGLVRTQSEESRPQSLQQPATSTTETPASPAHTTPQTQSTSGRRRRAANEDPDEKRRKFLERNRAAASRCRQKRKVWVQSLEKKAEDLSSLNGQLQSEVTLLRNEVAQLKQLLLAHKDCPVTAMQKKSGYHTADKDDSSEDISVPSSPHTEAIQHSSVSTSNGVSSTSKAEAVATSVLTQMADQSTEPALSQIVMAPSSQSQPSGS | – | – | – | – | LUCIFERASE ACTIVITY [7]: 29,000 Light Units/OD |
| GAL4-ATF2 (wild type): fusion protein consisting of ATF2 and the GAL4 DNA binding domain, wild-type Thr69,71 (protein) MKLLSSIEQACDICRLKKLKCSKEKPKCAKCLKNNWECRYSPKTKRSPLTRAHLTEVESRLERLEQLFLLIFPREDLDMILKMDSLQDIKALLTGLFVQDNVNKDAVTDRLASVETDMPLTLRQHRISATSSSEESSNKGQRQLTVSMKFKLHVNSARQYKDLWNMSDDKPFLCTAPGCGQRFTNEDHLAVHKHKHEMTLKFGPARNDSVIVADQTPTPTRFLKNCEEVGLFNELASPFENEFKKASEDDIKKMPLDLSPLATPIIRSKIEEPSVVETTHQDSPLPHPESTTSDEKEVPLAQTAQPTSAIVRPASLQVPNVLLTSSDSSVIIQQAVPSPTSSTVITQAPSSNRPIVPVPGPFPLLLHLPNGQTMPVAIPASITSSNVHVPAAVPLVRPVTMVPSVPGIPGPSSPQPVQSEAKMRLKAALTQQHPPVTNGDTVKGHGSGLVRTQSEESRPQSLQQPATSTTETPASPAHTTPQTQSTSGRRRRAANEDPDEKRRKFLERNRAAASRCRQKRKVWVQSLEKKAEDLSSLNGQLQSEVTLLRNEVAQLKQLLLAHKDCPVTAMQKKSGYHTADKDDSSEDISVPSSPHTEAIQHSSVSTSNGVSSTSKAEAVATSVLTQMADQSTEPALSQIVMAPSSQSQPSGS | – | – | – | – | LUCIFERASE ACTIVITY [7]: 320,000 Light Units/OD |
